Reference: patent publication US12583855B2, “RET selective inhibitor, preparation method therefor and use thereof” (SHOUYAO HOLDINGS (BEIJING) CO., LTD., priority 2019, dated 2026)
Changes are numbered by the printed parent chain.

Columns and labels:
TT cells = test: TT cell proliferation activity (Cell-Titer Glo); type: cell-based; conditions: TT human thyroid carcinoma cells, 120 h
Experimental: 4. Determination of TT Cell Proliferation Activity of Compounds
TT cells, a human thyroid carcinoma cell line, were cultured in Ham's F-12K medium supplemented with 15% fetal bovine serum (FBS, purchased from Biological Industries, BI) and 1% penicillin/streptomycin double antibody (P/S, purchased from Life Technology) under conditions of 37° C. and 5% CO2. TT cells were plated in a 96-well plate (#3917 purchased from Corning) at a concentration of 5000 cells/195 μL/well the day before compound was detected. The compounds were diluted 3-fold with 100% DMSO starting from 10 mM (10 concentrations in total) after 24 h, and 2 μL of each concentration was diluted in 48 μL of Ham's F-12K medium. 5 μL of each diluted compound was added to the plated Cell suspension, the compound and cells were co-incubated in a cell incubator for 120 h (5 days), after the medium was aspirated. 25 μL of Cell-Titer Glo (G7570, purchased from Promega) reagent was added and re-incubated for 5-10 min. Fluorescence value was then read on Envision and the data were calculated using GraphPad Prism software to obtain IC50 values for inhibition of cell proliferation by the compounds.

VEGFR2 = VEGFR2 (Homo sapiens, UniProt P35968); test: In vitro enzymatic activity assay on VEGFR2 (HTRF); type: biochemical; conditions: GST-VEGFR2 0.1 nM, ATP 2.5 μM
Procedure, shortened: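 GST-VEGFR2 (0.1 nM final) with 2.5 μM ATP and 1 μM TK peptide substrate in HEPES pH 7.5 buffer with Mg²⁺/Mn²⁺, 1.5 h at 23 °C. HTRF read-out (665/620 nm ratio) after adding TK antibody and streptavidin-XL665. IC50 from 7-point, 5-fold dilution series.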

RET^WT = target: T1, RET^WT (Homo sapiens, UniProt P07949); test: In vitro enzymatic activity assay on RET^WT (HTRF); type: biochemical; conditions: GST-RET^WT (658-1114 aa) 0.5 nM, ATP 25 μM
T1 construct: GST-RET^WT (658-1114 aa, final concentration of 0.5 nM)
T1 sequence (P07949 658-1114): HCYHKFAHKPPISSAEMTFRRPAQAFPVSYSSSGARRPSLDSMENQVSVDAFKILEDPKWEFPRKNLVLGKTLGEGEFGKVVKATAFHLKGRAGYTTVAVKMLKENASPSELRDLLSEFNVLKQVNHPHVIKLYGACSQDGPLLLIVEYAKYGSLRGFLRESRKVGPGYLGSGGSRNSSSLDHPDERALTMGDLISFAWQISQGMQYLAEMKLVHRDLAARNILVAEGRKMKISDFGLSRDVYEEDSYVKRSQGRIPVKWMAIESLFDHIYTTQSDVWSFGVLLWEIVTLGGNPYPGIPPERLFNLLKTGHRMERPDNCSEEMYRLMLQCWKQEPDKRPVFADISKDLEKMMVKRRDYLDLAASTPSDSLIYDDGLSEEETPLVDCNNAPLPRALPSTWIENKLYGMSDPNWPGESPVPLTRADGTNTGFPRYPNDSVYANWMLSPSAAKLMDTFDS
Procedure, shortened: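 Reaction run 2 h at 23 °C in HEPES pH 7.5 buffer with Na3VO4, MgCl2, DTT, Tween 20 and BSA; compounds tested at 7 concentrations (5-fold serial dilution in DMSO from 0.2 mM stock). HTRF detection with TK antibody and streptavidin-XL665; IC50 from curve fitting.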

[1] = Pharmacokinetic data of compounds in male SD rats; type: in vivo; conditions: rat, po, intragastric, 5 mg/kg, suspension MC 0.5%, plasma
Experimental: 6. Pharmacokinetic Data of Compounds
Male SD rats (Beijing Vital River Laboratory Animal Technology Co., Ltd) were divided into groups. 3 in each group, received intragastric administration with the suspension of the test sample (5 mg/kg, suspensions MC 0.5%), respectively. Animals were fasted overnight prior to the experiment from 10 h before dosing to 4 h after dosing. Blood was collected 0.25, 0.5, 1, 2, 4, 6, 8, and 24 h after administration, respectively. After isoflurane anesthesia using a small animal anesthesia machine, 0.3 mL of whole blood samples was taken through the fundus venous plexus, placed in a heparin anticoagulant tube, and were centrifuged at 4° C. 4000 rpm for 5 min plasma was transferred to the centrifuge tube, and stored at −80° C. until analysis. Samples in the plasma were extracted using protein precipitation and the extracts were analyzed by LC/MS.

KIF5B-RET/HEK293T cells = test: Cell proliferation activity in KIF5B-RET/HEK293T cells (Cell-Titer Glo); type: cell-based; conditions: Homo sapiens, HEK-293T, 72 h, read-out: KIFSB-RETV^804M/293T (Cell)IC50
RET^V804M = target: T2, RET^V804M (Homo sapiens, UniProt P07949, V804M); test: In vitro enzymatic activity assay on RET^V804M (HTRF); type: biochemical; conditions: GST-RET^V804M (658-1114 aa) 0.02 nM, ATP 1.5 μM
T2 construct: GST-RET^V804M (658-1114 aa, final concentration of 0.02 nM)
T2 sequence (P07949 658-1114 V804M): T1 sequence (P07949 658-1114) with V147M

VEGFR2, sequence (P35968 20-1356): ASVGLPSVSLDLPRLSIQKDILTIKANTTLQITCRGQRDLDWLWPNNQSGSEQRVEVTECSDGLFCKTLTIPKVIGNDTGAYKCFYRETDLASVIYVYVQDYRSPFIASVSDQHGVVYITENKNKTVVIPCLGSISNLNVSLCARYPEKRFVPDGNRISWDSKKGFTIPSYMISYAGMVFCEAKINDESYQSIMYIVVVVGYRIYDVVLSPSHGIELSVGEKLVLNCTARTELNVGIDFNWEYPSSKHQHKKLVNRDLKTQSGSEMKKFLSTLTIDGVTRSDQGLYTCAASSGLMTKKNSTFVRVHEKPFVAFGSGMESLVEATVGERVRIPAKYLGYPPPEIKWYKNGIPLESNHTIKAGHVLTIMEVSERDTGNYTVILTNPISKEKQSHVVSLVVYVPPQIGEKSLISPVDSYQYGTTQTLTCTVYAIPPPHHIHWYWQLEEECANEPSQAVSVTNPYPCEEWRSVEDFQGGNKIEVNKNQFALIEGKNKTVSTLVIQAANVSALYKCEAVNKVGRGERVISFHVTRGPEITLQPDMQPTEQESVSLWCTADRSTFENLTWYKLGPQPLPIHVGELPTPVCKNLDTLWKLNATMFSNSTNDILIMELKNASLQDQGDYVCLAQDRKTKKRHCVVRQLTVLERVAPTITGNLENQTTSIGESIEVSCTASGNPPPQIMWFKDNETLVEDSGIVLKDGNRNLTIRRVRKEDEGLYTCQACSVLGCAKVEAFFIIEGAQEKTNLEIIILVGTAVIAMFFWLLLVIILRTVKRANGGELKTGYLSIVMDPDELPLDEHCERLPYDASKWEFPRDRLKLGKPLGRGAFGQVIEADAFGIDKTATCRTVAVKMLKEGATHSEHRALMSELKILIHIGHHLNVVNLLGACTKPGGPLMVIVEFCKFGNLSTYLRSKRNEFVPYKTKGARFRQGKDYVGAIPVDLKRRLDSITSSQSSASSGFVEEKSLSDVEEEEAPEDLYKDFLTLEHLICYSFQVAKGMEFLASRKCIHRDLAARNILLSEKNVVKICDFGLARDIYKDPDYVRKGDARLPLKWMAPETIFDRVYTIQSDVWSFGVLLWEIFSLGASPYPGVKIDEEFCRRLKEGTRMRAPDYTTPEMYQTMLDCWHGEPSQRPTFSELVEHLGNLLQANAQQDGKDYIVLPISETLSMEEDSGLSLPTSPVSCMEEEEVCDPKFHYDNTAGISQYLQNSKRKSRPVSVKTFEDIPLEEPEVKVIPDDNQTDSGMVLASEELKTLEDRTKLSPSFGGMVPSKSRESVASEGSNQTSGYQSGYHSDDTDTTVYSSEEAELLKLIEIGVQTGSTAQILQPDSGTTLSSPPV

Structure (SMILES) | IC50 (TT cells) [nM] | IC50 (VEGFR2) [nM] | IC50 (RET^WT) [nM] | AUC(0-inf) [1] [ng·h/mL] | Cmax [1] [ng/mL] | Tmax [1] [h] | half-life [1] [h] | IC50 (KIF5B-RET/HEK293T cells) [nM] | IC50 (RET^V804M) [nM]
COc1ccc(CN2C3CC2CN(c2ccc(-c4cc(N5CC(C)(O)C5)cn5ncc(C#N)c45)cn2)C3)cn1 [Example 7, 6-(3-hydroxy-3-methylazetidin-1-yl)-4-(6-(6-((6-methoxypyridin-3-yl)methyl)-3,6-diazabicyclo[3.1.1]heptan-3-yl)pyridin-3-yl)pyrazolo[1,5-a]pyridine-3-carbonitrile] | 7.41 | 9.67 | 0.601 | 12600 | 1460 | 2 | 3.53 | 99.1 | –
CN(C)C(=S)N1CCN(c2ccc(-c3cc(-c4cnn(C)c4)cn4ncc(C#N)c34)cn2)CC1 [Example 8, 4-(5-(3-cyano-6-(1-methyl-1Hpyrazol-4-yl)pyrazolo[1,5-a]pyridine-4-yl)pyridin-2-yl)-N,N-dimethylpiperazin-1-carbothioamide] | 14 | 9.15 | 0.863 | – | – | – | – | 162 | 0.908
CSc1ccc(CN2CCN(c3ccc(-c4cc(-c5cnn(C)c5)cn5ncc(C#N)c45)cn3)CC2)nc1 [Example 9, 6-(1-methyl-1Hpyrazol-4-yl)-4(6-(4-((5-(methylthio)pyridin-2-yl)methyl)piperazin-1-yl)pyridin-3-yl)pyrazolo[1,5-a]pyridine-3-carbonitrile] | 37.3 | 10 | 0.565 | 8290 | 1660 | 2.17 | 2.02 | 371 | 1.22
COCC1=C(C(=O)N2CCN(c3ccc(-c4cc(-c5cnn(C)c5)cn5ncc(C#N)c45)cn3)CC2)CCC1 [Example 12, 4-(6-(4-(2-(methoxymethyl)cyclopent-1-ene-1-carbonyl)piperazin-1-yl)pyridin-3-yl)-6-(1-methyl-1Hpyrazol-4-yl)pyrazolo[1,5-a]pyridine-3-carbonitrile] | 6.3 | 14.4 | 0.65 | – | – | – | – | 141 | 1.47
CSc1ccc(CN2CCN(c3ccc(-c4cc(-c5cnn(C)c5)cn5ncc(C#N)c45)cn3)CC2)cc1 [Example 17, 6-(1-methyl-1Hpyrazol-4-yl)-4-(6-(4-(4-(methylthio)benzyl)piperazin-1-yl)pyridin-3-yl)pyrazolo[1,5-a]pyridine-3-carbonitrile] | – | 14.1 | – | – | – | – | – | 394 | –
Cn1cc(-c2cc(-c3ccc(N4CC5CC(C4)N5Cc4cccc(S(C)(=O)=O)c4)nc3)c3c(C#N)cnn3c2)cn1 [Example 20, 6-(1-methyl-1Hpyrazol-4-yl)-4-(6-(6-(3-(methylsulfonyl)benzyl)-3,6-diazabicyclo[3.1.1]heptan-3-yl)pyridin-3-yl)pyrazolo[1,5-a]pyridine-3-carbonitrile] | 6.58 | 6.44 | 0.092 | – | – | – | – | 146 | 0.237
CSc1ccc(CN2C3CC2CN(c2ccc(-c4cc(-c5cnn(C)c5)cn5ncc(C#N)c45)cn2)C3)nc1 [Example 22, 6-(1-methyl-1Hpyrazol-4-yl)-4-(6-(6-((5-(methylthio)pyridin-2-yl)methyl)-3,6-diazabicyclo[3.1.1]heptan-3-yl)pyridin-3-yl)pyrazolo[1,5-a]pyridine-3-carbonitrile] | 12.9 | – | 0.124 | – | – | – | – | 147 | 0.242
Cn1cc(-c2cc(-c3ccc(N4CC5CC(C4)N5Cc4ccc(S(C)(=O)=O)cc4)nc3)c3c(C#N)cnn3c2)cn1 [Example 25, 6-(1-methyl-1Hpyrazol-4-yl)-4-(6-(6-(4-(methylsulfonyl)benzyl)-3,6-diazabicyclo[3.1.1]heptan-3-yl)pyridin-3-yl)pyrazolo[1,5-a]pyridine-3-carbonitrile] | 5.96 | – | 0.148 | – | – | – | – | 146 | 0.236
CS(=O)(=O)c1ccc(CN2C3CC2CN(c2ccc(-c4cc(-c5cnn(C(F)F)c5)cn5ncc(C#N)c45)cn2)C3)cc1 [Example 45, 6-(1-difluoromethyl-1Hpyrazol-4-yl)-4-(6-(6-(4-(methylsulfonyl)benzyl)-3,6-diazabicyclo[3.1.1]heptan-3-yl)pyridin-3-yl) pyrazolo[1,5-a] pyridine-3-carbonitrile] | 22.7 | 4.96 | 0.159 | 27500 | 3560 | 1.83 | 3.21 | – | 0.822
CSc1ccc(CN2C3CC2CN(c2ccc(-c4cc(-c5cnn(C(F)F)c5)cn5ncc(C#N)c45)cn2)C3)cn1 [Example 60, 6-(1-(difluoromethyl)-1Hpyrazol-4-yl)-4-(6-(6-((6-(methylthio)pyridin-3-yl)methyl)-3,6-diazabicyclo[3.1.1]heptan-3-yl)pyridin-3-yl)pyrazolo[1,5-a]pyridine-3-carbonitrile] | 18.5 | 3.1 | 0.103 | 14700 | 1140 | 1.5 | 7.45 | 281 | 0.593
CC1(O)CN(c2cc(-c3ccc(N4CC5CC(C4)N5Cc4cccc(S(C)(=O)=O)c4)nc3)c3c(C#N)cnn3c2)C1 [Example 65, 6-(3-hydroxy-3-methylazetidin-1-yl)-4-(6-(6-(3-(methylsulfonyl)benzyl)-3,6-diazabicyclo[3.1.1]heptan-3-yl)pyridin-3-yl)pyrazolo[1,5-a]pyridine-3-carbonitrile] | 24.1 | 19.4 | 0.67 | – | – | – | – | 349 | 1.85
CSc1cc(CN2C3CC2CN(c2ccc(-c4cc(-c5cnn(C(F)F)c5)cn5ncc(C#N)c45)cn2)C3)ccn1 [Example 72, 6-(1-(difluoromethyl)-1Hpyrazol-4-yl)-4-(6(6-((2-(methylthio)pyridin-4-yl)methyl)-3,6-diazabicyclo[3.1.1]heptan-3-yl)pyridin-3-yl)pyrazolo[1,5-a]pyridine-3-carbonitrile] | 24.9 | 7.74 | 0.147 | – | – | – | – | 387 | 0.735
